Where “and” joins values, the source holds several entries; their conditions need not be identical. Equal entries are not always repeated.
Experiments:
[1] = system: dogs undergoing ovariohysterectomy; test: Sedation scores at each time point in ovariohysterectomy clinical trial (Example IV); settings: 0.5 mg/kg SC q 4 h; Day 3 7:00 AM
[2] = system: dogs undergoing ovariohysterectomy; test: Postoperative pain: Glasgow Composite Pain Scale and need for rescue analgesic (Example IV); settings: 0.5 mg/kg SC q 4 h; total 13
[3] = Plasma methadone concentrations by liquid chromatography/triple quadrupole mass spectrometry (Example I); settings: for concentration at 0.333 h / concentration at 0.667 h / concentration at 1 h / concentration at 2 h / concentration at 4 h / concentration at 0 h / concentration at 6 h / concentration at 8 h / concentration at 12 h / concentration at 24 h: dog, in vivo

CCC(=O)C(CC(C)N(C)C)(c1ccccc1)c1ccccc1 (racemic) [methadone]
Sedation Score None (number of dogs) [1]: 13
Sedation Score Profound (number of dogs) [1]: 0
Sedation Score Slight (number of dogs) [1]: 0
Treatment Outcome: Failure (number of dogs, rescue analgesic needed) [2]: 0
Treatment Outcome: Success (number of dogs, no rescue analgesic) [2]: 13
concentration at 0.333 h ([3]; 1 mg/kg, Mean plasma methadone concentration, methadone alone 1 mg/kg PO, 0.333 hr, 6 dogs): 0.8 ng/mL
concentration at 0.667 h ([3]; 1 mg/kg, Mean plasma methadone concentration, methadone alone 1 mg/kg PO, 0.667 hr, 6 dogs): 1.3 ng/mL
concentration at 1 h ([3]; 1 mg/kg, Mean plasma methadone concentration, methadone alone 1 mg/kg PO, 1 hr, 6 dogs): 1.2 ng/mL
concentration at 2 h ([3]; 1 mg/kg, Mean plasma methadone concentration, methadone alone 1 mg/kg PO, 2 hr, 6 dogs): 0.7 ng/mL
concentration at 4 h ([3]; 1 mg/kg, Mean plasma methadone concentration, methadone alone 1 mg/kg PO, 4 hr, 6 dogs): 0.4 ng/mL
concentration at 0 h ([3]; 1 mg/kg, Plasma methadone concentration, individual dogs, methadone alone 1 mg/kg PO, 0 hr, Dog 1-6): < 0.5 ng/mL
concentration at 1 h ([3]; 1 mg/kg, Plasma methadone concentration, individual dogs, methadone alone 1 mg/kg PO, 1 hr, Dog 1-6): 1 ng/mL
concentration at 4 h ([3]; 1 mg/kg, Plasma methadone concentration, individual dogs, methadone alone 1 mg/kg PO, 4 hr, Dog 1-6): < 0.5 ng/mL
concentration at 6 h ([3]; 1 mg/kg, Plasma methadone concentration, individual dogs, methadone alone 1 mg/kg PO, 6 hr, Dog 1-6): < 0.5 ng/mL
concentration at 8 h ([3]; 1 mg/kg, Plasma methadone concentration, individual dogs, methadone alone 1 mg/kg PO, 8 hr, Dog 1-6): < 0.5 ng/mL
concentration at 12 h ([3]; 1 mg/kg, Plasma methadone concentration, individual dogs, methadone alone 1 mg/kg PO, 12 hr, Dog 1-6): < 0.5 ng/mL
concentration at 24 h ([3]; 1 mg/kg, Plasma methadone concentration, individual dogs, methadone alone 1 mg/kg PO, 24 hr, Dog 1-6): < 0.5 ng/mL
concentration at 0 h ([3]; Mean plasma methadone concentration, methadone 1 mg/kg PO 24 h after starting fluconazole 2.5 mg/kg PO q 12 h, 0 hr): 0 ng/mL
concentration at 0.333 h ([3]; Mean plasma methadone concentration, methadone 1 mg/kg PO 24 h after starting fluconazole 2.5 mg/kg PO q 12 h, 0.333 hr): 0.8 ng/mL
concentration at 0.667 h ([3]; Mean plasma methadone concentration, methadone 1 mg/kg PO 24 h after starting fluconazole 2.5 mg/kg PO q 12 h, 0.667 hr): 5.2 ng/mL
concentration at 1 h ([3]; Mean plasma methadone concentration, methadone 1 mg/kg PO 24 h after starting fluconazole 2.5 mg/kg PO q 12 h, 1 hr): 16 ng/mL
concentration at 2 h ([3]; Mean plasma methadone concentration, methadone 1 mg/kg PO 24 h after starting fluconazole 2.5 mg/kg PO q 12 h, 2 hr): 28.4 ng/mL
concentration at 4 h ([3]; Mean plasma methadone concentration, methadone 1 mg/kg PO 24 h after starting fluconazole 2.5 mg/kg PO q 12 h, 4 hr): 23.3 ng/mL
concentration at 6 h ([3]; Mean plasma methadone concentration, methadone 1 mg/kg PO 24 h after starting fluconazole 2.5 mg/kg PO q 12 h, 6 hr): 19.2 ng/mL
concentration at 8 h ([3]; Mean plasma methadone concentration, methadone 1 mg/kg PO 24 h after starting fluconazole 2.5 mg/kg PO q 12 h, 8 hr): 15.9 ng/mL
concentration at 12 h ([3]; Mean plasma methadone concentration, methadone 1 mg/kg PO 24 h after starting fluconazole 2.5 mg/kg PO q 12 h, 12 hr): 11.6 ng/mL
concentration at 24 h ([3]; Mean plasma methadone concentration, methadone 1 mg/kg PO 24 h after starting fluconazole 2.5 mg/kg PO q 12 h, 24 hr): 5.6 ng/mL
concentration at 0 h ([3]; Mean plasma methadone concentration, methadone 1 mg/kg PO 24 h after starting fluconazole 5 mg/kg PO q 12 h, 0 hr): 0 ng/mL
concentration at 0.333 h ([3]; Mean plasma methadone concentration, methadone 1 mg/kg PO 24 h after starting fluconazole 5 mg/kg PO q 12 h, 0.333 hr): 14 ng/mL
concentration at 0.667 h ([3]; Mean plasma methadone concentration, methadone 1 mg/kg PO 24 h after starting fluconazole 5 mg/kg PO q 12 h, 0.667 hr): 10.3 ng/mL
concentration at 1 h ([3]; Mean plasma methadone concentration, methadone 1 mg/kg PO 24 h after starting fluconazole 5 mg/kg PO q 12 h, 1 hr): 24.3 ng/mL
concentration at 2 h ([3]; Mean plasma methadone concentration, methadone 1 mg/kg PO 24 h after starting fluconazole 5 mg/kg PO q 12 h, 2 hr): 43.6 ng/mL
concentration at 4 h ([3]; Mean plasma methadone concentration, methadone 1 mg/kg PO 24 h after starting fluconazole 5 mg/kg PO q 12 h, 4 hr): 42.5 ng/mL
concentration at 6 h ([3]; Mean plasma methadone concentration, methadone 1 mg/kg PO 24 h after starting fluconazole 5 mg/kg PO q 12 h, 6 hr): 33.9 ng/mL
concentration at 8 h ([3]; Mean plasma methadone concentration, methadone 1 mg/kg PO 24 h after starting fluconazole 5 mg/kg PO q 12 h, 8 hr): 27.6 ng/mL
concentration at 12 h ([3]; Mean plasma methadone concentration, methadone 1 mg/kg PO 24 h after starting fluconazole 5 mg/kg PO q 12 h, 12 hr): 20.2 ng/mL
concentration at 24 h ([3]; Mean plasma methadone concentration, methadone 1 mg/kg PO 24 h after starting fluconazole 5 mg/kg PO q 12 h, 24 hr): 8.3 ng/mL
concentration at 0 h ([3]; Mean plasma methadone concentration, methadone 1 mg/kg PO 24 h after starting fluconazole 5 mg/kg PO q 24 h, 0 hr): 0 ng/mL
concentration at 0.333 h ([3]; Mean plasma methadone concentration, methadone 1 mg/kg PO 24 h after starting fluconazole 5 mg/kg PO q 24 h, 0.333 hr): 5.8 ng/mL
concentration at 0.667 h ([3]; Mean plasma methadone concentration, methadone 1 mg/kg PO 24 h after starting fluconazole 5 mg/kg PO q 24 h, 0.667 hr): 22.4 ng/mL
concentration at 1 h ([3]; Mean plasma methadone concentration, methadone 1 mg/kg PO 24 h after starting fluconazole 5 mg/kg PO q 24 h, 1 hr): 33.7 ng/mL
concentration at 2 h ([3]; Mean plasma methadone concentration, methadone 1 mg/kg PO 24 h after starting fluconazole 5 mg/kg PO q 24 h, 2 hr): 39.9 ng/mL
concentration at 4 h ([3]; Mean plasma methadone concentration, methadone 1 mg/kg PO 24 h after starting fluconazole 5 mg/kg PO q 24 h, 4 hr): 31.4 ng/mL
concentration at 6 h ([3]; Mean plasma methadone concentration, methadone 1 mg/kg PO 24 h after starting fluconazole 5 mg/kg PO q 24 h, 6 hr): 24 ng/mL
concentration at 8 h ([3]; Mean plasma methadone concentration, methadone 1 mg/kg PO 24 h after starting fluconazole 5 mg/kg PO q 24 h, 8 hr): 18.4 ng/mL
concentration at 12 h ([3]; Mean plasma methadone concentration, methadone 1 mg/kg PO 24 h after starting fluconazole 5 mg/kg PO q 24 h, 12 hr): 15.3 ng/mL
concentration at 24 h ([3]; Mean plasma methadone concentration, methadone 1 mg/kg PO 24 h after starting fluconazole 5 mg/kg PO q 24 h, 24 hr): 5.5 ng/mL
Plasma methadone concentration (not exceeded in any of 6 dogs) ([3]; methadone alone 1 mg/kg PO): ≤ 2 ng/mL
Plasma methadone concentration, individual dogs ([3]; methadone alone 1 mg/kg PO, 0 hr, Dog 1-6): <0.5 ng/mL
Plasma methadone concentration, individual dogs ([3]; methadone alone 1 mg/kg PO, 0.333 hr, Dog 1-6): <0.5 ng/mL (3×) and 1.3 ng/mL (2×) and 1.9 ng/mL
Plasma methadone concentration, individual dogs ([3]; methadone alone 1 mg/kg PO, 0.667 hr, Dog 1-6): 1.9 ng/mL and 1.2 ng/mL and 0.7 ng/mL and 1.3 ng/mL and 1.5 ng/mL and 1.0 ng/mL
Plasma methadone concentration, individual dogs ([3]; methadone alone 1 mg/kg PO, 1 hr, Dog 1-6): 1.2 ng/mL (2×) and 1.5 ng/mL and 1.4 ng/mL and 1.1 ng/mL
Plasma methadone concentration, individual dogs ([3]; methadone alone 1 mg/kg PO, 2 hr, Dog 1-6): <0.5 ng/mL (2×) and 0.8 ng/mL and 1.3 ng/mL and 0.6 ng/mL and 0.9 ng/mL
Plasma methadone concentration, individual dogs ([3]; methadone alone 1 mg/kg PO, 4 hr, Dog 1-6): <0.5 ng/mL (2×) and 1.0 ng/mL and 0.5 ng/mL and 0.7 ng/mL
Plasma methadone concentration, individual dogs ([3]; methadone alone 1 mg/kg PO, 6 hr, Dog 1-6): <0.5 ng/mL
Plasma methadone concentration, individual dogs ([3]; methadone alone 1 mg/kg PO, 8 hr, Dog 1-6): <0.5 ng/mL
Plasma methadone concentration, individual dogs ([3]; methadone alone 1 mg/kg PO, 12 hr, Dog 1-6): <0.5 ng/mL
Plasma methadone concentration, individual dogs ([3]; methadone alone 1 mg/kg PO, 24 hr, Dog 1-6): <0.5 ng/mL

— patent publication US11771662B2, “Analgesic formulation for control of pain in dogs” (Kansas State University Research Foundation, priority 2017, dated 2023)
